Laboratory results: US7282203B2, “Use of NOTCH pathway interfering agents for treatment of plasma cell disorders” (Health Research, Inc., priority 2003, dated 2007)

How the values were obtained:
multiple myeloma = conditions: cited from earlier work
OPM2 MM cells = test: MTT assay, percent of living OPM2 MM cells cultured on fibroblast cells; assay type: cell-based; conditions: for IC50: Homo sapiens, OPM-2
Procedure: FIG. 11A-D. IC50 for OPM2 cells (MM) incubated with doxorubicin (DOX) alone or in the presence of an anti-NOTCH or anti-JAG2 antibody. OPM2 (MM) cells were cultured on fibroblasts (MRC5) In FIG. 11 A, IC50 data is shown for cells incubated with different concentrations of DOX. In FIG. 11B, IC50 data is shown for OPM2 cells on fibroblast with […] DOX, an isotype antibody or an anti-NOTCH-EC antibody. In FIG. 11C, data is shown for the effect of the anti-NOTCH antibody alone, without DOX. In FIG. 11D, IC50 values are shown for OMP2 cells incubated alone, in the presence of DOX or in the presence of DOX with an anti-JAG2 antibody (M8).
To illustrate this embodiment, the anti-NOTCH-EC antibody or the anti-JAG2 antibody was used in combination with doxorubicin (DOX). The OPM2 MM cells were cultured for 48 hours on fibroblast cells with different concentrations of DOX. […] However, when increasing concentrations of the anti-JAG2 were added, the percent of living cells was seen to decrease.

MRC5 cell line = test: Cytokine secretion on incubation of MRC5 cell line with JAG2 binding peptide; assay type: cell-based; conditions: MRC5, different concentrations of peptide
Procedure: (§1) FIGS. 8A-C. Induction of the secretion of IL-6 (FIG. 8A); VEGF (FIG. 8B) and IGF-1 (FIG. 8C) by incubation of the MRC5 and RPMI8226 cell lines with a JAG2 binding peptide CDENYYSATCNKFCRPRND (SEQ ID NO:1) at the indicated concentrations.
(§2) In order to ascertain the involvement of JAG2 in the induction of the secretion of IL-6, VEGF and IGF-1, we incubated the MRC5 cell line with different concentrations of JAG2 peptide. This peptide corresponds to the binding region of JAG2 that activates NOTCH upon interaction. We also incubated the RPMI8226 cell line with this same peptide.

RPMI8226 cell line = test: Cytokine secretion on incubation of RPMI8226 cell line with JAG2 binding peptide; assay type: cell-based; conditions: RPMI8226 MM cell line
Procedure: as §1, §2

Compound: N[C@@H](Cc1ccc(N(CCCl)CCCl)cc1)C(=O)O [Melphalan]
- patients reaching complete remission (CR) (multiple myeloma; conventional chemotherapy, mainly Melphalan): 14%

Compound: COc1cccc2c1C(=O)c1c(O)c3c(c(O)c1C2=O)C[C@@](O)(C(=O)CO)C[C@@H]3O[C@H]1C[C@H](N)[C@H](O)[C@H](C)O1 [DOX, doxorubicin]
- percent of living cells (OPM2 MM cells; DOX alone (FIG. 11D)): no effect
- IC50 (OPM2 MM cells; DOX alone, 48 hours on fibroblast cells): ~1000 nM
- IC50 (OPM2 MM cells; DOX in the presence of 40 μg (27 μg/ml) anti-NOTCH EC antibody): 100 nM
- reduction of DOX concentration at IC50 (OPM2 MM cells; with 40 μg anti-NOTCH EC antibody versus DOX alone): ~10 times

Compound: CC(C)C[C@H](NC(=O)[C@H](Cc1ccccc1)NC(=O)c1cnccn1)B(O)O [PS341]
- CR/PR (multiple myeloma; available trials): 47%
- patients showing a >75% reduction of paraprotein (multiple myeloma; available trials): 30%

Compound: NH2-CDENYYSATCNKFCRPRND-OH (H-CDENYYSATCNKFCRPRND-OH; cysteine pairing not given here) [JAG2 binding peptide]
- secretion of IGF-1 (MRC5 cell line): activated
- secretion of IL-6 (MRC5 cell line): activated
- secretion of VEGF (MRC5 cell line): activated
- secretion of IGF-1 (RPMI8226 cell line): no stimulation
- secretion of IL-6 (RPMI8226 cell line): no stimulation
- secretion of VEGF (RPMI8226 cell line): no stimulation
